Counter-ions that a name gives are not always drawn.
Structure (SMILES) | melting point
CC1(c2cccc(NS(C)(=O)=O)c2)C2CN(CCCc3ccccc3)CC21 (stereo not drawn) (as salt: toluenesulfonate) | 182 to 184 °C
CC1(c2cccc(NS(C)(=O)=O)c2)C2CN(CCCc3ccccc3)CC21 (stereo not drawn) (as salt: hydrochloride) | 212 to 214 °C
CC1(c2cccc(NS(C)(=O)=O)c2)C2CN(CCc3ccc(C(F)(F)F)cc3)CC21 (stereo not drawn) | 159 to 161 °C
CC1(c2cccc(NS(C)(=O)=O)c2)C2CN(CCCc3ccccc3)CC21 (stereo not drawn) (as salt: tartrate) | 162 to 164 °C
CC1(c2cccc(NS(C)(=O)=O)c2)C2CN(CCCc3ccccc3)CC21 (stereo not drawn) (as salt: benzenesulfonate) | 166 to 168 °C
CC1(c2cccc(NS(C)(=O)=O)c2)C2CN(Cc3ccccc3)CC21 (stereo not drawn) [Example 22, N-[3-(3-Benzyl-6-methyl-3-azabicyclo[3.1.0]hex-6-yl)phenyl]methanesulfonamide] | 117 to 118 °C
